Data: patent publication US11166940B2, “Treatment of cardiac disorders by blocking SK4 potassium channel” (Ramot at Tel-Aviv University Ltd., priority 2016, dated 2021)

How the values were obtained:
CPVT2 hiPSC-CMs = test: Spontaneous APs and DADs in hiPS-CMs derived from CPVT2 (CASQ2 D307H) patients; format: cell-based, human; settings: 5 μM TRAM-34 added to 3 μM isoproterenol
Protocol: (§1) In all experiments, the coverslips were perfused at 33° C. with an external solution containing (in mM): 140 NaCl, 4 KCl, 11 Glucose, 1.2 MgCl2, 1.8 CaCl2, 5.5 HEPES titrated to pH 7.4 with NaOH and adjusted at 320 mOsm with sucrose.
FIG. 4F (Left) presents representative traces of spontaneous APs recorded in hiPS-CM derived from a CPVT2 (CASQ2 D307H) patients. From a regular pacing (black trace), DADs appeared when the cell was exposed to 3 μM isoproterenol (red trace, arrows). […] The suppression of cell 540 automaticity was reversible upon washout (blue trace). FIG. 4F (Right) present bar graphs showing data summary of pacing rate (n=17), on APD50 (n=17) and DADs (Normalized to Ctrl; one-way ANOVA***P=0.0001, n=15).

[1] = tested on: T type and L-type Ca2+ currents; test: Selectivity: voltage-ramp protocol in hESC-CMs, zero free Ca2+ in pipet; format: cell-based, human; settings: 5 μM TRAM-34; zero free Ca2+ in pipet solution; n=7
Protocol: The experiments were performed in zero free Ca2+ in the pipet solution.

CASQ2 KO mice = test: In vivo telemetric ECG recording in CASQ2 KO mice; design: species or system mouse; settings: 20 mg/kg IP; for number of mice, most severe ECG form: NSVT / number of mice, most severe ECG form: Normal (sinusal rhythm) / number of mice, most severe ECG form: SVT / number of mice, most severe ECG form: VPC: n=6
Excerpt: (§2) Telemetric ambulatory long-term ECG recordings, analogous to Holter monitoring in humans, were obtained with implantable transmitters. […] An implantable 3.5 grams wireless radiofrequency transmitter (DSI MM USA, device weight 3.8 grams) was aseptically inserted into a subcutaneous tissue pocket in the back as described in Katz, G., et al. Heart Rhythm 7, 1676-1682 (2010) and Kurtzwald-Josefson, E., et al. Heart Rhythm 11, 1471-1479 (2014)]. Animals were allowed to recover after surgery for at least 24 hours before any experiments. Baseline electrocardiograms (ECG) were obtained 15 minutes after IP injection of the appropriate vehicle (peanut oil or peanut oil supplemented with ethanol 1%). […] Telemetered ECG tracings were obtained in conscious mice at rest for one minute and during peak exercise (i.e. the first minute of recovery). In the treadmill exercise, mice were forced to exercise on a rodent treadmill; gradually increasing the speed up to a maximum of 15 m/minute. Ventricular tachycardia (VT) was defined as four or more consecutive ventricular beats. If this phenotype was consecutively observed for more than 15 seconds, it was defined as “sustained” ventricular tachycardia (SVT). Shorter VTs were characterized as “non-sustained” (NSVT). All other ventricular arrhythmias, such as premature beats, ventricular bigeminy, couplets and triplets were all defined as ventricular premature contractions (VPCs).
(§3) A heart telemetry device was implanted in WT, CASQ2-D307H KI and CASQ2 KO mice for continuous ECG recording at rest and during treadmill exercise. For each session, continuous ECG recording was performed with the same animals receiving first intraperitoneal (IP) injection of vehicle (peanut oil) and then the SK4 channel blocker.
The types of arrhythmic features were classified following their seriousness: sinusal rhythm (normal), ventricular premature contractions (VPC), non-sustained ventricular tachycardia (NSVT) and sustained ventricular tachycardia (SVT). For each mouse was considered the most severe form of arrhythmia recorded under ECG.

SAN cells = test: Spontaneous APs / pacing rate of isolated SAN cells from WT mice (patch clamp); format: cell-based, mouse; settings: 2 μM TRAM-34 added to 50 nM isoproterenol
Protocol: WT and CASQ2 D307H KI mice were anesthetized with isofluorane and sacrificed by cervical dislocation. The heart was rapidly removed and transferred into Tyrode solution containing heparin. […] The area was cleaned, cut into small strips and washed into a Low Calcium Solution, containing (in mM): 140 NaCl, 5.4 KCl, 0.5 MgCl2, 1.2 KH2PO4, 5 HEPES-NaOH, 50 taurine, 5.5 glucose (pH 6.9). The osmolarity was adjusted if needed to 315 mOsm.
The same solution, supplemented with 1 mg/ml albumin, 200 μM CaCl2, collagenase Type I (Worthington) or liberase TH (Roche), protease (Sigma) and elastase (Sigma) was used for enzymatic digestion as previously described [See, Mesirca, P., et al. Nat Commun 5, 4664 (2014)]. In this step, the tissue was gently resuspended with a polished Pasteur pipette in this solution for 9-13 minutes at 37° C. SAN samples were then washed three times in a modified “Kraftbrühe” solution, containing (in mM): 70 glutamic acid, 80 KOH, 20 KCl, 10 γ-Hydroxybutyric acid sodium salt, 10 KH2PO4, 10 HEPES-KOH, 10 taurine, 1 mg/ml albumin, 0.1 EGTA-KOH (pH 7.2). The same solution was used to re-suspend the single cells with a pipet by vigorous up and down, between 3 to 5 minutes at 37° C. Cells were then gradually exposed to increasing concentrations of calcium, following a “Ca^2+ readaptation” protocol [Mesirca et al., 2014, supra]. Experiments were performed the same day at 33° C.
as §1
The spontaneous automaticity of isolated SAN cells was recorded under perforated-patch conditions by adding 30 μM β-escin49 to the intracellular solution containing (in mM): 130 KCl, 10 NaCl, 10 HEPES, 0.2 EGTA-KOH, 2 MgATP, 6.6 Phosphocreatine, 0.05 cAMP and 1 μM free Ca^2+ (pH 7.2). To record SK4 K+ current, a voltage ramp protocol was applied. SAN and hiPS-CMs were held at −40 mV and −20 mV, respectively to substantially inactivate voltage-gated Na^+ and Ca^2+ currents. Cells were stepped from −90 mV to +60 mV for 150 ms. Then, a cocktail (solution 1) containing (in mM) 0.3 cadmium, 0.025 ZD-7288 and 0.01 E-4031 was applied extracellularly to inhibit residual L-type and T-type voltage-gated Ca2+ currents, If and the IKr currents, respectively. […] For voltage-clamp recording of SAN cells, the intracellular solution was the same to that described above for recording spontaneous automaticity.
The spontaneous electric activity of the cell was recorded in the current clamp configuration of the patch clamp technique before (black trace) and during (violet trace) exposure to 2 μM clotrimazole.
FIG. 5E (Left) presents representative traces of spontaneous APs recorded in single SAN cell from WT mice.

WT mice = test: In vivo telemetric ECG recording in WT (normal) mice; design: species or system mouse; settings: 20 mg/kg IP, WT mice at rest
Excerpt: as §2
as §3, with “For this, a” for “A”, “norma” for “WT, CASQ2-D307H KI and CASQ2 KO”, “20 mg/kg clotrimazole.” for “the SK4 channel blocker.”
as §3

SMILES: Clc1ccccc1C(c1ccccc1)(c1ccccc1)n1cccn1 [TRAM-34, 1-[(2-chlorophenyl)diphenylmethyl]-1H-pyrazole]
- number of DADs (CPVT2 hiPSC-CMs): drastically reduced the number of DADs
- spontaneous activity (CPVT2 hiPSC-CMs): reversible cessation of the spontaneous activity
- T type and L type Ca2+ currents (two inward humps) [1]: does not alter the voltage-gated Ca2+ currents
- PR prolongation (CASQ2 KO mice; KO mice at rest, n=7): 46%
- heart rate decrease (CASQ2 KO mice; KO mice at rest, n=7): 34±7%
- sinus rate and PR interval (CASQ2 KO mice; KO mice during treadmill exercise): significant sinus bradycardia and PR interval prolongation
- number of mice, most severe ECG form: NSVT (CASQ2 KO mice; KO at rest): 0
- number of mice, most severe ECG form: Normal (sinusal rhythm) (CASQ2 KO mice; KO at rest): 6
- number of mice, most severe ECG form: SVT (CASQ2 KO mice; KO at rest): 0
- number of mice, most severe ECG form: VPC (CASQ2 KO mice; KO at rest): 0
- number of mice, most severe ECG form: NSVT (CASQ2 KO mice; KO during exercise): 3
- number of mice, most severe ECG form: Normal (sinusal rhythm) (CASQ2 KO mice; KO during exercise): 3
- number of mice, most severe ECG form: SVT (CASQ2 KO mice; KO during exercise): 0
- number of mice, most severe ECG form: VPC (CASQ2 KO mice; KO during exercise): 0
- DD slope (SAN cells): markedly reduced the DD slope
- MDP (SAN cells): depolarized the MDP
- beating rate (SAN cells): decreased the beating rate
- cells in which pacing activity stopped (SAN cells): 3 out of 7
- prolongation of the PR interval (WT mice): 20%
- reduction of resting heart rate (WT mice; vs vehicle in same animal): 16±3%
